The values that follow come from patent US7759350B2, “Pyrimidine carboxamides” (Orchid Research Laboratories Ltd., priority 2005, dated 2010).

As usually defined, the IC50 is the concentration that inhibits the measured activity by half. High values mean weaker potency, low ones greater potency. In general, inhibition refers to the percentage by which the read-out fell short of the control. The melting point is the temperature of the solid-liquid transition. Broadly, the GI50 is the concentration giving 50% growth inhibition.

Data set [1] deals with TNF-α. The data set is described as follows: In vitro measurement of TNF-α in human PBMC. It is filed as cell-based. Particulars: LPS; for IC50: TNF-α inhibition. The method, then:
In Vitro Measurement of Tumor Necrosis Factor Alpha (TNF-α)
This assay determines the effect of test compounds on the production of TNF-α in human Peripheral Blood Mononuclear Cells (PBMC). Compounds were tested for their ability to inhibit the activity of TNF-α in human PBMC. PBMC were isolated from blood (from healthy volunteers) using BD Vacutainer CPT™ (Cell preparation tube, BD Bio Science) and suspended in RPMI medium (Physiol. Res. 52; 593-598, 2003). The test compounds were pre-incubated with PBMC (0.5 million/incubation well) for 15 minutes at 37° C. and then stimulated with Lipopolysaccharide (Escherichia coli: B4; 1 μg/ml) for 18 hours at 37° C. in 5% CO2. The levels of TNF-α in the cell culture medium were estimated using enzyme linked Immunosorbent assay performed in a 96 well format as per the procedure of the manufacturer (R&D Systems, Inc. 614 McKinley Place Nebr., Minneapolis, Minn. 55413, USA).

For data set [2], the target named is purified recombinant COX-1 enzyme (Homo sapiens, UniProt P23219). As to the kind of experiment: COX-1 enzyme based assay. It is filed as biochemical. The conditions noted are these: Conc. 10 μM. The method, then: (§1) COX-1 and COX-2 Enzyme Based Assay
(§2) COX-2 enzyme based assays were carried out to check the inhibitory potential of test compounds on the production of prostaglandin by purified recombinant COX-1/COX-2 enzyme (Proc. Nat. Acad. Sci. USA, 88, 2692-2696, 1991; Clin. Immunoassay 15, 116-120, 1992) In this assay, the potential of the test compound to inhibit the production of prostaglandin either by COX-1 or COX-2 from arachidonic acid (substrate) was measured. This was an enzyme based in-vitro assay to evaluate selective COX inhibition with good reproducibility.
(§3) Arachidonic acid was converted to PGH2 (Intermediate product) by COX1/COX-2 in presence or absence of the test compound. The reaction was carried out at 37° C. and after 2 minutes it was stopped by adding 1M HCl. Intermediate products PGH2 was converted to a stable Prostanoid product PGF2α by SnCl2 reduction. The amount of PGF2α produced in the reaction was inversely proportional to the COX inhibitory potential of the test compound. The prostanoid product was quantified via enzyme immunoassay (EIA) using a broadly specific antibody that binds to all the major forms of Prostaglandin, using Cayman ELISA kit as per the procedure outlined by the manufacturer Cayman Chemicals, Ann Arbor, USA).

The target in data set [3] is T1, purified recombinant COX-2 enzyme (Homo sapiens, UniProt P35354).
T1 sequence (P35354 18-604): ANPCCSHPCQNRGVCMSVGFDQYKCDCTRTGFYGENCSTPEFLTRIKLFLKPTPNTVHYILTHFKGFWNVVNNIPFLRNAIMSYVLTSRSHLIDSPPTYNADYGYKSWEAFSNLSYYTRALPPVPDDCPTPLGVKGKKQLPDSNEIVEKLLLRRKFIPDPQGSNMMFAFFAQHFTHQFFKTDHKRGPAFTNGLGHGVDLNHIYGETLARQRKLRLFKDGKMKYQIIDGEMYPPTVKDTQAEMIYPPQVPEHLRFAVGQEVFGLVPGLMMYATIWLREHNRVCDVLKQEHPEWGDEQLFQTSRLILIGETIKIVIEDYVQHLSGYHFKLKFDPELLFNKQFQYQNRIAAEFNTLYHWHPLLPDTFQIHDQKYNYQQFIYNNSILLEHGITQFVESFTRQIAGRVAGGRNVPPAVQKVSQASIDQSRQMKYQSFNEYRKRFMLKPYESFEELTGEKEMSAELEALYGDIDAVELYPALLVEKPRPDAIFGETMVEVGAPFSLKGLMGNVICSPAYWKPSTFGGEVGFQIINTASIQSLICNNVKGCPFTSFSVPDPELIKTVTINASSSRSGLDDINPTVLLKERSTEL
The data set is described as follows: COX-2 enzyme based assay. It is filed as biochemical. Particulars: Conc. 10 μM. The method, then:
as §1, §2, §3

Data set [4] deals with TNF-α. As to the kind of experiment: LPS induced sepsis for measurement of TNF-α inhibition in mice. Particulars: 50 mg/kg bw oral; female Swiss albino mice; serum 90 minutes after LPS. It is filed as in vivo. The method, then:
LPS Induced Sepsis for Measurement of TNF-α Inhibition in Mice
The LPS induced sepsis model in mice was performed as described by Les sekut et al (J Lab Clin Med 1994; 124:813-20). Female Swiss albino mice were selected with their body weights being equivalent within each group. The mice were fasted for 20 hours with free access to water. The mice were dosed orally with the test compound suspended in vehicle containing 0.5% Tween 80 in 0.25% Carboxy-methylcellulose sodium salt. The control mice were administered the vehicle alone. After 30 minutes of oral dosing, the mice were injected with 500 μg of Lipopolysaccharide (Escherichia coli, LPS: B4 from Sigma) in phosphate buffer saline solution into the intraperitoneal cavity of the mice. After 90 minutes of LPS administration, the mice were bled via retro-orbital sinus puncture. Blood samples were stored overnight at 4° C. Serum samples were collected by centrifuging the samples at 4000 rpm for 15 minutes at 4° C. Immediately the serum samples were analysed for TNF-α levels, using commercially available mouse TNF-α ELISA kit (Amersham Biosciences) and assay was performed by the manufacturer instruction.

Another data set deals with T2, COX-2 (Homo sapiens, UniProt P35354).
T2 construct: Fresh blood was collected in tubes containing sodium heparin by vein puncture from healthy male volunteers; endogenous in cells; host or cells: human whole blood from healthy male volunteers, stimulated with LPS
T2 sequence (P35354 18-604): T1 sequence (P35354 18-604)
The data set is described as follows: Human whole blood assay, COX-2 inhibition (PGE2 after LPS). It is filed as cell-based. Particulars: LPS stimulated; for inhibition at 0.25 µM: Conc. 0.25 μM. The method, then:
Human whole blood provides a protein and cell rich milieu appropriate for the study of biochemical efficacy of anti-inflammatory compounds such as selective COX-2 inhibitors. […] This is correlating with the observation that COX-2 inhibitors have no effect on prostaglandin E2 (PGE2) production in normal blood. These inhibitors were active only after incubation of human blood with lipopolysaccharide (LPS), which induces COX-2 production in the blood.
Fresh blood was collected in tubes containing sodium heparin by vein puncture from healthy male volunteers. […] Then test compounds (at various concentrations) or vehicle were added to blood. After that blood was stimulated with LPS B: 4 (10 μg/ml) and incubated for another 18 hours at 37° C. water bath. After which the blood was centrifuged, plasma was separated and stored at −80° C. (J. Pharmacol. Exp. Ther, 271, 1705, 1994; Proc. Natl. Acad. Sci. USA., 96, 7563, 1999). The plasma was assayed for PGE2 using Cayman ELISA kit as per the procedure outlined by the manufacturer (Cayman Chemicals, Ann Arbor, USA).

The next data set relates to IL-6. The data set is described as follows: In vitro measurement of IL-6 in human PBMC. It is filed as cell-based. The conditions noted are these: Conc. 0.1 μM, LPS. The method, then:
(§4) In vitro Measurement of Interleukin-6 (IL-6) & Interleukin-1β (IL1β)
(§5) This assay determines the effect of test compounds on the production of IL-6 and IL1β in human PBMC (Physiol. Res. 52: 593-598, 2003). Compounds were tested for their ability to inhibit the activity of IL-6 and IL1β in human PBMC. PBMC were isolated from blood using BD Vacutainer CPT™ Cell preparation tube (BD Bio Science) and suspended in RPMI medium. The test compounds were preincubated with PBMC (0.5 million/incubation well) for 15 minutes at 37° C. and then stimulated with Lipopolysaccharide (Escherichia coli: B4; 1 μg/ml) for 18 hours at 37° C. in 5% CO2. The levels of IL-6 and IL1β in cell culture medium were estimated using enzyme linked Immunosorbent assay performed in a 96 well format as per the procedure of the manufacturer (R&D Systems, Inc. 614 McKinley Place Nebr., Minneapolis, Minn. 55413, USA).

A further data set relates to IL-1β. The data set is described as follows: In vitro measurement of IL-1β in human PBMC. It is filed as cell-based. Particulars: Conc. 0.1 μM, LPS. The method, then:
as §4, §5

Another data set relates to NCI-H460. The data set is described as follows: Anti-cancer screen (MTT), NCI-H460. It is filed as cell-based. The conditions noted are these: Homo sapiens, NCI-H460; 48 hours, MTT. The method, then: Experimental drugs are screened for anti-cancer activity in three cell lines for their GI50, TGI and LC50 values (using five concentrations for each compound). The cell lines are maintained in DMEM containing 10% fetal bovine serum. 96 well microtiter plates are inoculated with cells in 100 μL for 24 h at 37° C., 5% CO2, 95% air and 100% relative humidity. 5000 HCT116 cells/well, 5000 NCIH460 cells/well, 10000 U251 cells/well and 5000 MDAMB231 cells/well are plated. A separate plate with these cell lines is also inoculated to determine cell viability before the addition of the compounds (T0).
Following 24 hours incubation, experimental drugs are added to the 96 well plates. […] Compounds are dissolved in dimethylsulfoxide (DMSO) to make 20 mM stock solutions on the day of drug addition and frozen at −20° C. […] Standard drugs whose anti-cancer activity has been well documented and which are regularly used are doxorubicin and SAHA.
Cells are incubated with compounds for 48 hours followed by the addition of 10 μL 3-(4,5-Dimethyl-2-thiazolyl)-2,5-diphenyl-2H-tetrazolium (MTT) solution per well and a subsequent incubation at 37° C., 5% CO2, 95% air and 100% relative humidity, protected from light. After 4 hours, well contents are aspirated carefully followed by addition of 150 μL DMSO per well. Plates are agitated to ensure solution of the formazan crystals in dimethylsulphoxide and absorbance read at 570 nm.
Percent growth is calculated for each compound's concentration relative to the control and zero measurement wells (To; viability right before compound addition). If a test well's O.D. value is greater than the To measurement for that cell line % Growth=(test−zero)/(control−zero)×100
If a test well's O.D. value is lower than the T0 measurement for that cell line, […]

purified recombinant COX-1 enzyme, sequence (P23219 24-599): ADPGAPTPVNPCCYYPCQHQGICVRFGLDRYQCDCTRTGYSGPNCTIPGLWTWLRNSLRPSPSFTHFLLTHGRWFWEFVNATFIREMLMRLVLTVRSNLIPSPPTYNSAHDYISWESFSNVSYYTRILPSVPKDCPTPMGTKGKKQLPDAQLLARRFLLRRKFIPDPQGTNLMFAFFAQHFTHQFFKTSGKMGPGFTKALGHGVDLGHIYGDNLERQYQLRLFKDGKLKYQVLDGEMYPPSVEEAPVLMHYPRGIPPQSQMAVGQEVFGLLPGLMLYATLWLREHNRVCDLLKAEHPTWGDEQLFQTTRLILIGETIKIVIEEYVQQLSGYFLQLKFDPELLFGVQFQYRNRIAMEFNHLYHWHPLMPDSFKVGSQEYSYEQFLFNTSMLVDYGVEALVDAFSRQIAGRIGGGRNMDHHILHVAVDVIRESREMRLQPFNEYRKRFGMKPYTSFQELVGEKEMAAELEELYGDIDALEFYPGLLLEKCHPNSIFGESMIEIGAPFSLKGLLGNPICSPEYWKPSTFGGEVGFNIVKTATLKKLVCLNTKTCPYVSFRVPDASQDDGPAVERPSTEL

`CSc1nc(-c2ccncc2)nc(NCCO)c1C(=O)Nc1ccc(C)c(C)c1` [Example 37, N-(3,4-Dimethylphenyl)-4-[(2-hydroxyethyl)amino]-6-(methylthio)-2-pyridin-4-ylpyrimidine-5-carboxamide]: in the data set with TNF-α [1], the concentration for half-maximal inhibition (IC50) worked out at 1.5 µM and testing at 1 µM gave an inhibition of 42.7%. For the same molecule, the inhibition at 10 µM in data set [2] is 6.58%. Also, in data set [3], the inhibition at 10 µM came out at 17.1%. Besides, the “TNF-α Inhibition (%) at 50 mg/kg bw” value in the data set on TNF-α [4] was 66.65%.

Take `CNc1nc(-c2cccnc2)nc(NC)c1C(=O)Nc1ccc(OC)cc1` [Example 28, N-(4-Methoxyphenyl)-4,6-bis(methylamino)-2-pyridin-3-ylpyrimidine-5-carboxamide]: in the data set on TNF-α [1], the IC50 turned out to be 0.9 µM and the inhibition at 1 µM amounted to 45.1%. In addition, the inhibition at 10 µM in data set [2] came out at 25.5%. Further, the inhibition at 10 µM in data set [3] worked out at 23.2%. The “TNF-α Inhibition (%) at 50 mg/kg bw” value in the data set with TNF-α [4] is reported as 81.5%.

`CNc1nc(-c2ccc(S(N)(=O)=O)cc2)nc(NC)c1C(=O)Nc1ccc(C)cc1` [Example 13, 2-[4-(Aminosulfonyl)phenyl]-4,6-bis(methylamino)-N-(4-methylphenyl)pyrimidine-5-carboxamide] came in with an inhibition at 0.25 µM at COX-2 of 24.5%. Also, in the data set with IL-6, the inhibition at 0.1 µM was 21.5%. Further, the “IL-1β Inhibition (%)” value in the data set on IL-1β is listed as “Not active”.

In the case of `CNc1nc(-c2ccc(S(N)(=O)=O)cc2)nc(NC)c1C(=O)Nc1ccc(C)c(C)c1` [Example 10, 2-[4-(Aminosulfonyl)phenyl]-4,6-bis(methylamino)-N-(3,4-dimethylphenyl)pyrimidine-5-carboxamide], the inhibition at 10 µM at COX-2 (Conc. 10 μM) was determined as 24.2%.

`CNc1nc(-c2ccc(S(N)(=O)=O)cc2)nc(SC)c1C(=O)Nc1ccc(C)cc1` [Example 12, 2-[4-(Aminosulfonyl)phenyl]-4-(methylamino)-N-(4-methylphenyl)-6-(methylthio)pyrimidine-5-carboxamide] returned an inhibition at 0.25 µM against COX-2 of 24.9%.

Take `CNc1nc(-c2cccnc2)nc(SC)c1C(=O)Nc1ccc(OC)cc1` [Example 6, N-(4-Methoxyphenyl)-4-(methylamino)-6-(methylthio)-2-pyridin-3-ylpyrimidine-5-carboxamide]: the melting point lay in the range of 184 to 197 °C. In addition, inhibition with TNF-α [1] was half-maximal at 0.86 µM (IC50). In addition, in the data set on TNF-α [1] (at 0.1 μM), the inhibition at 0.1 µM came out at 30.3%. Also, in [2], the inhibition at 10 µM came out at 28.8%. For the same molecule, the inhibition at 10 µM in [3] came out at 19.3%. Besides, the “TNF-α Inhibition (%) at 50 mg/kg bw” value in the data set with TNF-α [4] amounted to 77.0%.

With `CSc1nc(-c2ccncc2)nc(NCCO)c1C(=O)Nc1ccc(C)cc1` [Example 35, 4-[(2-Hydroxyethyl)amino]-N-(4-methylphenyl)-6-(methylthio)-2-pyridin-4-ylpyrimidine-5-carboxamide], in the data set with TNF-α [1], 1.8 µM corresponded to half-maximal inhibition (IC50) and the inhibition at 1 µM was determined as 52.7%. Also, in data set [2], the inhibition at 10 µM worked out at 15.2%. Also, the GI50 in the data set with NCI-H460 turned out to be 9 µM. Moreover, in data set [3], the inhibition at 10 µM came to 26.8%. Also, the “TNF-α Inhibition (%) at 50 mg/kg bw” value with TNF-α [4] is 59.94%.
